This note sets out measurements from patent US9394305B2, “Substituted imidazo[1,2-a]pyridine compounds as tropomyosin receptor kinase a (TrkA) inhibitors” (Dr. Reddy's Laboratories Ltd., priority 2014, dated 2016).

Some results are limits rather than exact numbers.

This assay deals with T1, TrkA kinase (Homo sapiens, UniProt P04629).
T1 construct: purchased Upstate, USA
T1 sequence (P04629 33-796): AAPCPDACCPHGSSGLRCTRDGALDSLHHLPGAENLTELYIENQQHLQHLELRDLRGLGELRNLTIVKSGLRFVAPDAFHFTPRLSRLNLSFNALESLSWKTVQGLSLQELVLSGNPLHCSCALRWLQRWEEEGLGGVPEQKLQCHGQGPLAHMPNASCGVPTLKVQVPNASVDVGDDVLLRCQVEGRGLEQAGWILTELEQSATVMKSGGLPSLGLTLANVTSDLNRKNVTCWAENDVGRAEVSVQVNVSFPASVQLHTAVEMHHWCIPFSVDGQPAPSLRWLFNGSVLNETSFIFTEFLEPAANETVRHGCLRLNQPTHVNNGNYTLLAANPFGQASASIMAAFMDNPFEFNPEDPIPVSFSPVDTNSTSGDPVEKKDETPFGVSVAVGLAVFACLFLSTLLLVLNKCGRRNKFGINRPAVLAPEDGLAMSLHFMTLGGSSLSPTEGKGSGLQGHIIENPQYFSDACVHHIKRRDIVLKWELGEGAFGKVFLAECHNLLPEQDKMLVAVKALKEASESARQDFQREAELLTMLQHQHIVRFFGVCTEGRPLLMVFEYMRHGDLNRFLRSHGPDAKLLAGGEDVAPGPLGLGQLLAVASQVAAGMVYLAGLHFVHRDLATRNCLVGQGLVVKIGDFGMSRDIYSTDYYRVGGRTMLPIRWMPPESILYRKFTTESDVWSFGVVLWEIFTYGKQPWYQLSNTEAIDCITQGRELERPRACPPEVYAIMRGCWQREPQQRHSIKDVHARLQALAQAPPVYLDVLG
Kind of assay: In vitro TrkA inhibitory activity using TR-FRET assay. The settings on record: 5 ng TrkA, 500 μM ATP, values given as bins, read-out: TrkA inhibition in-vitro IC50. In kind it is biochemical. In short, it runs like this: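 TrkA kinase (5 ng) was preincubated 30 min at 20-35° C. with compound (1% DMSO final), then 40 nM ULight poly GT and 500 μM ATP were added for 30 min before an EDTA stop. Phosphorylation was detected by Eu anti-phosphotyrosine TR-FRET (ex 340, em 615/665 nm), and IC50 came from sigmoidal fits of 1/3 serial dilutions.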
On the technique in general: TR-FRET usually uses a lanthanide donor and a delayed reading to cut background.
Broadly, the IC50 is the concentration at which inhibition is half-maximal. `CN(c1nccs1)S(=O)(=O)NC(=O)c1cnc2ccc(N3CCC[C@@H]3c3cc(F)ccc3OC3CCOCC3)cn12` [Example 81, (R)-6-(2-(5-fluoro-2-((tetrahydro-2H-pyran-4-yl)oxy)phenyl)pyrrolidin-1-yl)-N—(N-methyl-N-(thiazol-2-yl)sulfamoyl)imidazo[1,2-a]pyridine-3-carboxamide]: the IC50 was no more than 50 nM.

`COCCN(C)S(=O)(=O)NC(=O)c1cnc2ccc(N3CCC[C@@H]3c3cc(F)ccc3OC3CCOCC3)cn12` [Example 82, (R)-6-(2-(5-fluoro-2-((tetrahydro-2H-pyran-4-yl)oxy)phenyl)pyrrolidin-1-yl)-N—(N-(2-methoxyethyl)-N-methylsulfamoyl)imidazo[1,2-a]pyridine-3-carboxamide]: the IC50 fell in the range of 50 to 100 nM. Next, `CCOCCN(C)S(=O)(=O)NC(=O)c1cnc2ccc(N3CCC[C@@H]3c3cc(F)ccc3OC3CCOCC3)cn12` [Example 83, (R)—N—(N-(2-ethoxyethyl)-N-methylsulfamoyl)-6-(2-(5-fluoro-2-((tetrahydro-2H-pyran-4-yl)oxy)phenyl)pyrrolidin-1-yl)imidazo[1,2-a]pyridine-3-carboxamide]: no more than 50 nM. Take `CN(c1ccccn1)S(=O)(=O)NC(=O)c1cnc2ccc(N3CCC[C@@H]3c3cc(F)ccc3OC3CCOCC3)cn12` [Example 84, (R)-6-(2-(5-fluoro-2-((tetrahydro-2H-pyran-4-yl)oxy)phenyl)pyrrolidin-1-yl)-N—(N-methyl-N-(pyridin-2-yl)sulfamoyl)imidazo[1,2-a]pyridine-3-carboxamide]: the half-maximal inhibitory concentration (IC50) was no more than 50 nM. For `Cc1nnc(N(C)S(=O)(=O)NC(=O)c2cnc3ccc(N4CCC[C@@H]4c4cc(F)ccc4OC4CCOCC4)cn23)s1` [Example 85, (R)-6-(2-(5-fluoro-2-((tetrahydro-2H-pyran-4-yl)oxy)phenyl)pyrrolidin-1-yl)-N—(N-methyl-N-(5-methyl-1,3,4-thiadiazol-2-yl)sulfamoyl)imidazo[1,2-a]pyridine-3-carboxamide], the IC50 is no more than 50 nM. Next, `CN(c1nncs1)S(=O)(=O)NC(=O)c1cnc2ccc(N3CCC[C@@H]3c3cc(F)ccc3OC3CCOCC3)cn12` [Example 86, (R)-6-(2-(5-fluoro-2-((tetrahydro-2H-pyran-4-yl)oxy)phenyl)pyrrolidin-1-yl)-N—(N-methyl-N-(1,3,4-thiadiazol-2-yl)sulfamoyl)imidazo[1,2-a]pyridine-3-carboxamide]: no more than 50 nM; `Cc1ccc(N(C)S(=O)(=O)NC(=O)c2cnc3ccc(N4CCC[C@@H]4c4cc(F)ccc4OC4CCOCC4)cn23)nn1` [Example 87, (R)-6-(2-(5-fluoro-2-((tetrahydro-2H-pyran-4-yl)oxy)phenyl)pyrrolidin-1-yl)-N—(N-methyl-N-(6-methylpyridazin-3-yl)sulfamoyl)imidazo[1,2-a]pyridine-3-carboxamide]: no more than 50 nM; `CCCN(C)S(=O)(=O)NC(=O)c1cnc2ccc(N3C[C@@H](F)C[C@@H]3c3cc(F)ccc3OC3CCOCC3)cn12` [Example 88, 6-((2R,4S)-4-fluoro-2-(5-fluoro-2-((tetrahydro-2H-pyran-4-yl)oxy)phenyl)pyrrolidin-1-yl)-N—(N-methyl-N-propylsulfamoyl)imidazo[1,2-a]pyridine-3-carboxamide]: no more than 50 nM. Take `COCCN(C)S(=O)(=O)NC(=O)c1cnc2ccc(N3C[C@@H](F)C[C@@H]3c3cc(F)ccc3OC3CCOCC3)cn12` [Example 89, 6-((2R,4S)-4-fluoro-2-(5-fluoro-2-((tetrahydro-2H-pyran-4-yl)oxy)phenyl)pyrrolidin-1-yl)-N—(N-(2-methoxyethyl)-N-methylsulfamoyl)imidazo[1,2-a]pyridine-3-carboxamide]: the IC50 is no more than 50 nM.

As for `CN(c1ccn(C)n1)S(=O)(=O)NC(=O)c1cnc2ccc(N3CCC[C@@H]3c3cc(F)ccc3F)cn12` [Example 90, (R)-6-(2-(2,5-difluorophenyl)pyrrolidin-1-yl)-N—(N-methyl-N-(1-methyl-1H-pyrazol-3-yl)sulfamoyl)imidazo[1,2-a]pyridine-3-carboxamide], the IC50 was no more than 50 nM. The value for `CN(c1ccn(C)n1)S(=O)(=O)NC(=O)c1cnc2ccc(N3CCC[C@@H]3c3cc(F)ccc3OC3CCOCC3)cn12` [Example 91, (R)-6-(2-(5-fluoro-2-((tetrahydro-2H-pyran-4-yl)oxy)phenyl)pyrrolidin-1-yl)-N—(N-methyl-N-(1-methyl-1H-pyrazol-3-yl)sulfamoyl)imidazo[1,2-a]pyridine-3-carboxamide] was 50 to 100 nM; that for `CN(c1ccn(C)n1)S(=O)(=O)NC(=O)c1cnc2ccc(N3C[C@@H](F)C[C@@H]3c3cc(F)ccc3O[C@@H]3CCOC3)cn12` [Example 92, 6-((2R,4S)-4-fluoro-2-(5-fluoro-2-(((R)-tetrahydrofuran-3-yl)oxy)phenyl)pyrrolidin-1-yl)-N—(N-methyl-N-(1-methyl-1H-pyrazol-3-yl)sulfamoyl)imidazo[1,2-a]pyridine-3-carboxamide] was no more than 50 nM. Next, `Cc1nnc(N(C)S(=O)(=O)NC(=O)c2cnc3ccc(N4C[C@@H](F)C[C@@H]4c4cc(F)ccc4O[C@@H]4CCOC4)cn23)s1` [Example 93, 6-((2R,4S)-4-fluoro-2-(5-fluoro-2-(((R)-tetrahydrofuran-3-yl)oxy)phenyl)pyrrolidin-1-yl)-N—(N-methyl-N-(5-methyl-1,3,4-thiadiazol-2-yl)sulfamoyl)imidazo[1,2-a]pyridine-3-carboxamide]: no more than 50 nM; `CC(C)(C)S(=O)(=O)NC(=O)c1cnc2ccc(N3C[C@@H](F)C[C@@H]3c3cc(F)ccc3OC3CCOCC3)cn12` [Example 94, N-(tert-butylsulfonyl)-6-((2R,4S)-4-fluoro-2-(5-fluoro-2-((tetrahydro-2H-pyran-4-yl)oxy)phenyl)pyrrolidin-1-yl)imidazo[1,2-a]pyridine-3-carboxamide]: 50 to 100 nM. Next, `CCN(CC)S(=O)(=O)NC(=O)c1cnc2ccc(N3C[C@@H](F)C[C@@H]3c3cc(F)ccc3OC3CCOCC3)cn12` [Example 95, N—(N,N-diethylsulfamoyl)-6-((2R,4S)-4-fluoro-2-(5-fluoro-2-((tetrahydro-2H-pyran-4-yl)oxy)phenyl)pyrrolidin-1-yl)imidazo[1,2-a]pyridine-3-carboxamide]: no more than 50 nM; `CN(c1ccn(C)n1)S(=O)(=O)NC(=O)c1cnc2ccc(N3C[C@@H](F)C[C@@H]3c3cc(F)ccc3OC3CCOCC3)cn12` [Example 96, 6-((2R,4S)-4-fluoro-2-(5-fluoro-2-((tetrahydro-2H-pyran-4-yl)oxy)phenyl)pyrrolidin-1-yl)-N—(N-methyl-N-(1-methyl-1H-pyrazol-3-yl)sulfamoyl)imidazo[1,2-a]pyridine-3-carboxamide]: no more than 50 nM; `CN(c1nncs1)S(=O)(=O)NC(=O)c1cnc2ccc(N3C[C@@H](F)C[C@@H]3c3cc(F)ccc3OC3CCOCC3)cn12` [Example 97, 6-((2R,4S)-4-fluoro-2-(5-fluoro-2-((tetrahydro-2H-pyran-4-yl)oxy)phenyl)pyrrolidin-1-yl)-N—(N-methyl-N-(1,3,4-thiadiazol-2-yl)sulfamoyl)imidazo[1,2-a]pyridine-3-carboxamide]: no more than 50 nM. With `Cc1nnc(N(C)S(=O)(=O)NC(=O)c2cnc3ccc(N4C[C@@H](F)C[C@@H]4c4cc(F)ccc4OC4CCOCC4)cn23)s1` [Example 98, 6-((2R,4S)-4-fluoro-2-(5-fluoro-2-((tetrahydro-2H-pyran-4-yl)oxy)phenyl)pyrrolidin-1-yl)-N—(N-methyl-N-(5-methyl-1,3,4-thiadiazol-2-yl)sulfamoyl)imidazo[1,2-a]pyridine-3-carboxamide], the IC50 lay in the range of 50 to 100 nM. The value for `CN(CCF)S(=O)(=O)NC(=O)c1cnc2ccc(N3C[C@@H](F)C[C@@H]3c3cc(F)ccc3OC3CCOCC3)cn12` [Example 99, 6-((2R,4S)-4-fluoro-2-(5-fluoro-2-((tetrahydro-2H-pyran-4-yl)oxy)phenyl)pyrrolidin-1-yl)-N—(N-(2-fluoroethyl)-N-methylsulfamoyl)imidazo[1,2-a]pyridine-3-carboxamide] was no more than 50 nM.

As for `CN(c1nccs1)S(=O)(=O)NC(=O)c1cnc2ccc(N3C[C@@H](F)C[C@@H]3c3cc(F)ccc3OC3CCOCC3)cn12` [Example 100, 6-((2R,4S)-4-fluoro-2-(5-fluoro-2-((tetrahydro-2H-pyran-4-yl)oxy)phenyl)pyrrolidin-1-yl)-N—(N-methyl-N-(thiazol-2-yl)sulfamoyl)imidazo[1,2-a]pyridine-3-carboxamide], the IC50 is no more than 50 nM. As for `CCCN(C)S(=O)(=O)NC(=O)c1cnc2ccc(N3C[C@@H](F)C[C@@H]3c3cc(F)ccc3O[C@@H]3CCOC3)cn12` [Example 101, 6-((2R,4S)-4-fluoro-2-(5-fluoro-2-(((R)-tetrahydrofuran-3-yl)oxy)phenyl)pyrrolidin-1-yl)-N—(N-methyl-N-propylsulfamoyl)imidazo[1,2-a]pyridine-3-carboxamide], the IC50 was no more than 50 nM. Regarding `CCN(CCF)S(=O)(=O)NC(=O)c1cnc2ccc(N3C[C@@H](F)C[C@@H]3c3cc(F)ccc3OC3CCOCC3)cn12` [Example 102, N—(N-ethyl-N-(2-fluoroethyl)sulfamoyl)-6-((2R,4S)-4-fluoro-2-(5-fluoro-2-((tetrahydro-2H-pyran-4-yl)oxy)phenyl)pyrrolidin-1-yl)imidazo[1,2-a]pyridine-3-carboxamide], the IC50 was no more than 50 nM. For `CN(c1ccccn1)S(=O)(=O)NC(=O)c1cnc2ccc(N3C[C@@H](F)C[C@@H]3c3cc(F)ccc3O[C@@H]3CCOC3)cn12` [Example 103, 6-((2R,4S)-4-fluoro-2-(5-fluoro-2-(((R)-tetrahydrofuran-3-yl)oxy)phenyl)pyrrolidin-1-yl)-N—(N-methyl-N-(pyridin-2-yl)sulfamoyl)imidazo[1,2-a]pyridine-3-carboxamide], the IC50 is no more than 50 nM.
